Patent US20070197609A1, “SALTS OF INDUCIBLE NITRIC OXIDE SYNTHASE DIMERIZATION INHIBITORS” (KALYPSYS, INC., priority 2005, published 2007)

How the values were obtained:
[1] = Moisture sorption/desorption analysis for hygroscopicity; assay type: physicochemical; settings: for initial weight loss upon equilibration: at 5% RH; for total weight gain: at 95% RH; for hygroscopicity: moisture sorption/desorption behavior
From the text: This weight was gradually regained by approximately 75% RH with a total weight gain of approximately 0.64% at 95% RH. Slightly more weight was lost during desorption with litle hysterisis.
The moisture sorption/desorption profiles of Compound 2 hydrochloride, Compound 2 acetate, and compound 2 adipate are presented in Table 7. […] Relative humidity was then increased and weight measurements taken at regular intervals. Change is given as percent of original sample.

[2] = Solubility in selected solvents; assay type: physicochemical; settings: thermodynamic from solid
Protocol: The solubility of Compound 2 acetate was investigated with regard to potential process and formulation solvents. The solubility of Compound 2 acetate was evaluated by preparing saturated solution of Compound 2 in the selected solvents, filtering the samples (0.22 μm), diluting, and determining concentration by external standard HPLC using a rapid analysis assay.

hiNOS = molecular target: T1, hiNOS (Homo sapiens, UniProt P35228); settings: DAN assay, HEK293 cells transfected with NOS isoform; cited from earlier work
T1 construct: expressed in transfected cells; host or cells: HEK293

heNOS = molecular target: T2, heNOS (Homo sapiens, UniProt P29474); settings: DAN assay, HEK293 cells transfected with NOS isoform; cited from earlier work
T2 construct: expressed in transfected cells; host or cells: HEK293
T2 sequence (P29474 2-1203 limits assumed): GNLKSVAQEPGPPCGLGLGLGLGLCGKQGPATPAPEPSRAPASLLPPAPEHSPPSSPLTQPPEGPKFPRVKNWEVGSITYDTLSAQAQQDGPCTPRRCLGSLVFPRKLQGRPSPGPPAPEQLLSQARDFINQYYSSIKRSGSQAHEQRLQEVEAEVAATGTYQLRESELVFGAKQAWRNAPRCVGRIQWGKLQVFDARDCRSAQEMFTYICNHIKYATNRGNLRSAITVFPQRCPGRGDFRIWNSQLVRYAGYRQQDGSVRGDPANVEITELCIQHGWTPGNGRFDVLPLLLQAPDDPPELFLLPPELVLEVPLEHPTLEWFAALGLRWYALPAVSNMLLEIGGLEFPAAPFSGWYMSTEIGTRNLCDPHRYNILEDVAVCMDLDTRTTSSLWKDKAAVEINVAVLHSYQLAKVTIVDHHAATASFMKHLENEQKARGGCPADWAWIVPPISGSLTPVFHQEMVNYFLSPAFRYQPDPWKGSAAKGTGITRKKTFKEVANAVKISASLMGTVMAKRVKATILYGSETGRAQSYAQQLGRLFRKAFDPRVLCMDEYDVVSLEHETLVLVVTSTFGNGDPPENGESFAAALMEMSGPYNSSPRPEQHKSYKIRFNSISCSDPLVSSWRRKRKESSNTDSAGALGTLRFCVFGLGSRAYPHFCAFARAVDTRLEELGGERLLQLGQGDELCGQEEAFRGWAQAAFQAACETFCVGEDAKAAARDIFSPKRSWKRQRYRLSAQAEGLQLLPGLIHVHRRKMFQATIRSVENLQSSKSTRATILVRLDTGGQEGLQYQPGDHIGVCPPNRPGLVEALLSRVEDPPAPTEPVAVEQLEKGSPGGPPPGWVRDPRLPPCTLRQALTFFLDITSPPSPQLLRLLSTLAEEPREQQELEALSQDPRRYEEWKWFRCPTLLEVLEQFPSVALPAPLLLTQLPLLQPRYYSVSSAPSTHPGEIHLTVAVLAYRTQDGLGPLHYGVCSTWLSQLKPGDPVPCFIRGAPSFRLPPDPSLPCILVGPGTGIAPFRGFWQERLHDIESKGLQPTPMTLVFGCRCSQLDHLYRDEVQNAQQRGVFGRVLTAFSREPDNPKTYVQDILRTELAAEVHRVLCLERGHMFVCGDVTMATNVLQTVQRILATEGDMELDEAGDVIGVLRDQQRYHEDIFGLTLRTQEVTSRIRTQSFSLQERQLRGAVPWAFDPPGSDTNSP

hnNOS = molecular target: T3, hnNOS (Homo sapiens, UniProt P29475); settings: DAN assay, HEK293 cells transfected with NOS isoform; cited from earlier work
T3 construct: expressed in transfected cells; host or cells: HEK293

LPS Induced iNOS = settings: rat; cited from earlier work

T3 sequence (P29475 whole entry, canonical isoform): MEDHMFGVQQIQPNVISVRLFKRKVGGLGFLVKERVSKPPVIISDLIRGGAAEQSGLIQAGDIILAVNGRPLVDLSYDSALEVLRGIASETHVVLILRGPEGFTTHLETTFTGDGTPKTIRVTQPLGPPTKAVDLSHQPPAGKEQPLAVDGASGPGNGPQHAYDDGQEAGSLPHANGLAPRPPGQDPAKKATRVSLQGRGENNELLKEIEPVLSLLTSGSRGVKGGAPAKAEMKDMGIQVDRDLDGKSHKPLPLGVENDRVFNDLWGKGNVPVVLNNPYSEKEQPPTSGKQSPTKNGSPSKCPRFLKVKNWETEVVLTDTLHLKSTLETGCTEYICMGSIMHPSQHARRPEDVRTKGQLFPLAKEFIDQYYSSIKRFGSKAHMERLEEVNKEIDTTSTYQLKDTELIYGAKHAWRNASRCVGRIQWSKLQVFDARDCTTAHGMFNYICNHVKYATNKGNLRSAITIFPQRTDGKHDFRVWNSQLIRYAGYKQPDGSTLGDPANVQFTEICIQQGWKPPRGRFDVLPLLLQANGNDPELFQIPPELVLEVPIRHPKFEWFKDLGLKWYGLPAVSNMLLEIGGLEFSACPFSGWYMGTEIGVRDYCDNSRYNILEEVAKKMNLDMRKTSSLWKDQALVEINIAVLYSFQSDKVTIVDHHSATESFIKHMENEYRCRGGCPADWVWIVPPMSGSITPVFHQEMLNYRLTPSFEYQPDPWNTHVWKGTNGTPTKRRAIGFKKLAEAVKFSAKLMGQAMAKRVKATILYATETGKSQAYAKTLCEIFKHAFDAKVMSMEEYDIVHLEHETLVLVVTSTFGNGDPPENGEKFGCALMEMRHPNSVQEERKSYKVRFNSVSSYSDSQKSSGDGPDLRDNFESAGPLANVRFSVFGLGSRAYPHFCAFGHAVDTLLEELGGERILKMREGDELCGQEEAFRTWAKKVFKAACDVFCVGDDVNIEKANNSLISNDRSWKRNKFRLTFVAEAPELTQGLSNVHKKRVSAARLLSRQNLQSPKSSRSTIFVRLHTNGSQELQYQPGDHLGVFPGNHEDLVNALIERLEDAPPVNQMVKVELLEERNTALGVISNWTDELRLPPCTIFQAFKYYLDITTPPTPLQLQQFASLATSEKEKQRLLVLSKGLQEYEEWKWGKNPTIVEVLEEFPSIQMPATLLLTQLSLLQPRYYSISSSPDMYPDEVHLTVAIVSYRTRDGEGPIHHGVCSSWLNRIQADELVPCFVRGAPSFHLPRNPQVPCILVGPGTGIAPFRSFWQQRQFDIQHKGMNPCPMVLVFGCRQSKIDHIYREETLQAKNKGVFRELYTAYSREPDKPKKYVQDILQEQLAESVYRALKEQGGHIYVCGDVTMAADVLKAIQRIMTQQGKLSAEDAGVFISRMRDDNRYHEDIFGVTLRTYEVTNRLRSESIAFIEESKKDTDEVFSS

| Compound | Weight % Change, Adsorption ([1]; 5 Percent Relative Humidity) [%] | Weight % Change, Desorption ([1]; 5 Percent Relative Humidity) [%] | Weight % Change, Adsorption ([1]; 15 Percent Relative Humidity) [%] | Weight % Change, Desorption ([1]; 15 Percent Relative Humidity) [%] | Weight % Change, Adsorption ([1]; 25 Percent Relative Humidity) [%] | Weight % Change, Desorption ([1]; 25 Percent Relative Humidity) [%] | Weight % Change, Adsorption ([1]; 35 Percent Relative Humidity) [%] | Weight % Change, Desorption ([1]; 35 Percent Relative Humidity) [%] | Weight % Change, Adsorption ([1]; 45 Percent Relative Humidity) [%] | Weight % Change, Desorption ([1]; 45 Percent Relative Humidity) [%] | Weight % Change, Adsorption ([1]; 55 Percent Relative Humidity) [%] | Weight % Change, Desorption ([1]; 55 Percent Relative Humidity) [%] | Weight % Change, Adsorption ([1]; 65 Percent Relative Humidity) [%] | Weight % Change, Desorption ([1]; 65 Percent Relative Humidity) [%] | Weight % Change, Adsorption ([1]; 75 Percent Relative Humidity) [%] | Weight % Change, Desorption ([1]; 75 Percent Relative Humidity) [%] | Weight % Change, Adsorption ([1]; 85 Percent Relative Humidity) [%] | Weight % Change, Desorption ([1]; 85 Percent Relative Humidity) [%] | Weight % Change, Adsorption ([1]; 95 Percent Relative Humidity) [%] | hygroscopicity [1] | other results |
| --- | --- | --- | --- | --- | --- | --- | --- | --- | --- | --- | --- | --- | --- | --- | --- | --- | --- | --- | --- | --- | --- |
| CN(CCCNCc1ccc2c(c1)OCO2)c1nc(-n2ccnc2)ns1.O=C(O)CCCCC(=O)O [Compound 2 adipate, N′-Benzo[1,3]dioxol-5-ylmethyl-N-(3-imidazol-1-yl-[1,2,4]thiadiazol-5-yl)-N-methyl-propane-1,3-diamine adipate salt] | <0 | <0 | <0 | <0 | <0 | <0 | <0 | <0 | <1 | <1 | <1 | <1 | <1 | <1 | <2 | <2 | <3 | <3 | >6 | hygroscopic, especially at elevated humidities | Weight % Change, Desorption ([1]; 95 Percent Relative Humidity): >6%; initial weight loss upon equilibration [1]: less than 1%; total weight gain [1]: over 6% |
| CC(=O)O.CN(CCCNCc1ccc2c(c1)OCO2)c1nc(-n2ccnc2)ns1 [Compound 2 acetate, N′-Benzo[1,3]dioxol-5-ylmethyl-N-(3-imidazol-1-yl-[1,2,4]thiadiazol-5-yl)-N-methyl-propane-1,3-diamine acetate salt] | <1 | <1 | <1 | <1 | <1 | <1 | <1 | <1 | <1 | <1 | <1 | <1 | <1 | <1 | <1 | <1 | <3 | <3 | <5 | significantly hygroscopic at high RH | Weight % Change, Desorption ([1]; 95 Percent Relative Humidity): <5%; weight gain ([1]; over the range of 5 to 85% relative humidity (RH)): minimal weight gain; solubility ([2]; acetonitrile, organic solvent or mixture): 2100 µg/mL; solubility ([2]; dichloromethane, organic solvent or mixture): 10000 µg/mL; solubility ([2]; ethanol, organic solvent or mixture): 8500 µg/mL; solubility ([2]; ethyl acetate, organic solvent or mixture): 2000 µg/mL; solubility ([2]; hexanes, organic solvent or mixture): 3 µg/mL; solubility ([2]; isopropanol, organic solvent or mixture): 3700 µg/mL; solubility ([2]; methanol, organic solvent or mixture): 58300 µg/mL; solubility ([2]; propylene glycol, organic solvent or mixture): 36700 µg/mL; solubility ([2]; water): 44600 µg/mL; solubility ([2]; water:ethanol:propylene glycol (40:40:20), aqueous with cosolvent or surfactant or cyclodextrin): 101000 µg/mL |
| CN(CCCNCc1ccc2c(c1)OCO2)c1nc(-n2ccnc2)ns1 [Compound 2, N′-Benzo[1,3]dioxol-5-ylmethyl-N-(3-imidazol-1-yl-[1,2,4]thiadiazol-5-yl)-N-methyl-propane-1,3-diamine] | – | – | – | – | – | – | – | – | – | – | – | – | – | – | – | – | – | – | – | not hygroscopic | initial weight loss upon equilibration [1]: approximately 0.16%; total weight gain [1]: approximately 0.64%; EC50 (hiNOS): < 1000 nM; EC50 (heNOS): > 10 µM; EC50 (hnNOS): > 1000 nM; LPS Induced iNOS In Vivo, ED50 (LPS Induced iNOS): + ((+), ED50 <10) |
| Benzo[1,3]dioxol-5-ylmethyl-{2-[2-(2-imidazol-1-yl-6-methyl-pyrimidin-4-yl)-pyrrolidin-1-yl]-ethyl}-amine [Compound 1] | – | – | – | – | – | – | – | – | – | – | – | – | – | – | – | – | – | – | – | – | EC50 (hiNOS): < 1000 nM; EC50 (heNOS): > 10 µM; EC50 (hnNOS): > 1000 nM; LPS Induced iNOS In Vivo, ED50 (LPS Induced iNOS): + ((+), ED50 <10) |
| CN(CCCNCc1ccc2c(c1)OCO2)c1nc(-n2ccnc2)ns1.Cl [Compound 2 hydrochloride, N′-Benzo[1,3]dioxol-5-ylmethyl-N-(3-imidazol-1-yl-[1,2,4]thiadiazol-5-yl)-N-methyl-propane-1,3-diamine hydrochloride salt] | <−1 | <−2 | <−1 | <−1 | <−1 | <−1 | <−1 | <−1 | <−1 | <−1 | <−1 | <0 | <0 | <0 | <0 | <1 | <1 | <2 | <5 | not hygroscopic | Weight % Change, Desorption ([1]; 95 Percent Relative Humidity): <5%; initial weight loss upon equilibration [1]: < 1%; total weight gain [1]: < 5% |
